Holding throughout (type): biochemical
One assay addresses T1, Src (Homo sapiens, UniProt P12931).
T1 construct: Kinases are expressed as either kinase domains or full length constructs; made in house
Nature of the assay: Kinase inhibition assay (33P transfer), Src. To be noted: Table 6, Src-1 kinase inhibition class. Put shortly: (§1)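 Steps: coat wells with poly(Glu,Tyr) 4:1 or poly(Arg,Ser) 3:1; add purified kinase, [33P]ATP and inhibitor; incubate; wash with 0.5% phosphoric acid; add liquid scintillant; count. IC50 corresponds to half-maximal reduction of bound 33P.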

The next assay has as its target T2, Fyn (Homo sapiens, UniProt P06241).
T2 construct: Kinases are expressed as either kinase domains or full length constructs; made in house
As to the kind of experiment: Kinase inhibition assay (33P transfer), Fyn. Conditions: read-out: Fyn-1. Put shortly: as §1

The target in another assay is T3, Itk (Homo sapiens, UniProt Q08881).
T3 construct: Kinases are expressed as either kinase domains or full length constructs; made in house
T3 sequence (Q08881 1-620): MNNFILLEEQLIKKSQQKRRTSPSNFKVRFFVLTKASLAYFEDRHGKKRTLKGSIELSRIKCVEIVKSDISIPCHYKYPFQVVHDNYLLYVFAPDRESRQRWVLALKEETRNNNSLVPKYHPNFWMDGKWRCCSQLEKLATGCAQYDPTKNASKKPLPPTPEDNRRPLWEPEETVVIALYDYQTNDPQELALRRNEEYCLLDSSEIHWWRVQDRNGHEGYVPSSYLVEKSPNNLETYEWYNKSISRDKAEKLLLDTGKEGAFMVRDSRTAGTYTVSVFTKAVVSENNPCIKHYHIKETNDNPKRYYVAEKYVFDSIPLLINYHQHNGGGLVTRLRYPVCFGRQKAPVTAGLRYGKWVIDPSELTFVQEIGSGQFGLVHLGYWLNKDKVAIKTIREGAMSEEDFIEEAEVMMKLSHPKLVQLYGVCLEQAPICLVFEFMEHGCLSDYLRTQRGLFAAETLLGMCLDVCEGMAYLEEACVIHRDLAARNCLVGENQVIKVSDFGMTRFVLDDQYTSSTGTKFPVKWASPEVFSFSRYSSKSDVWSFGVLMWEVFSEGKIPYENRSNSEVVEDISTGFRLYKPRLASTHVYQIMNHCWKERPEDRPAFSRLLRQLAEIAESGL
As to the kind of experiment: Kinase inhibition assay (33P transfer), Itk. Conditions: Table 3; read-out: Itk-1. The gist of the method: as §1

A further assay deals with T4, EGFR (Homo sapiens, UniProt P00533).
T4 construct: Kinases are expressed as either kinase domains or full length constructs; made in house
T4 sequence (P00533 25-1210, species assumed): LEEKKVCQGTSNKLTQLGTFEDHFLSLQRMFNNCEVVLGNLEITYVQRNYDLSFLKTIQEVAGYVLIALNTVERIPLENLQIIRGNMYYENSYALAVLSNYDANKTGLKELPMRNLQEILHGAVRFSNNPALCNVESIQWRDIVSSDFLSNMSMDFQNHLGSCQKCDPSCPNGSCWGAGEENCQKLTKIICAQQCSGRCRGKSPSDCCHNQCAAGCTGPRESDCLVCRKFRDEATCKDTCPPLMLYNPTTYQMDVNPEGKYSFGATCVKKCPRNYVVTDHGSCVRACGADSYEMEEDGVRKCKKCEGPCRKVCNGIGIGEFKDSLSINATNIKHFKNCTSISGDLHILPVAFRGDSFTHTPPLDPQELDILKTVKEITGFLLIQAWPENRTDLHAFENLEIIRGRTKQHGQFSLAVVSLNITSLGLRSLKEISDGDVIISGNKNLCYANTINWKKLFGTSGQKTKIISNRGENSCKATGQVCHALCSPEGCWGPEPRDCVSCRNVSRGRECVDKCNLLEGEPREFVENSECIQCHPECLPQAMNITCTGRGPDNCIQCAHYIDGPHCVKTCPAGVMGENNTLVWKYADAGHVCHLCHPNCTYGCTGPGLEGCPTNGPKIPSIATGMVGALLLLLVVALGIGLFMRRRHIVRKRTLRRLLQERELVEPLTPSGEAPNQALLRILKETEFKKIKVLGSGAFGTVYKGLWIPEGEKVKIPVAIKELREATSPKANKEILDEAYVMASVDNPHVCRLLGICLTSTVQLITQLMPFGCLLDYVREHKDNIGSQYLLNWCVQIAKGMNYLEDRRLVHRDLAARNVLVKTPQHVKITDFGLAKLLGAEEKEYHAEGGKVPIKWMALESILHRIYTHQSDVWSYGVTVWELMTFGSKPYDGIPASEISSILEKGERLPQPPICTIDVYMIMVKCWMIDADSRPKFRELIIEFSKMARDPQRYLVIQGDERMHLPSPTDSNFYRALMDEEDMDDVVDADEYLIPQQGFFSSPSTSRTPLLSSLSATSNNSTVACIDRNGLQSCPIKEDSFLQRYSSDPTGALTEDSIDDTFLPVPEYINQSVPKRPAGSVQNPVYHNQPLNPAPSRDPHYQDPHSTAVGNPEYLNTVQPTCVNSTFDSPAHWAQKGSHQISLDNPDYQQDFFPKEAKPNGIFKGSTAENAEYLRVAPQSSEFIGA
As to the kind of experiment: Kinase inhibition assay (33P transfer), EGFR. To be noted: Table 2, kinase inhibition class; read-out: EGFR-1. Put shortly: as §1

For another assay, the target named is T5, Tek (Homo sapiens, UniProt Q02763).
T5 construct: Kinases are expressed as either kinase domains or full length constructs; made in house
Nature of the assay: Kinase inhibition assay (33P transfer), Tek. To be noted: read-out: Tek-1. Put shortly: as §1

For a further assay, the target named is T6, EPHB4 (Homo sapiens, UniProt P54760).
T6 construct: Kinases are expressed as either kinase domains or full length constructs; made in house
T6 sequence (P54760 16-987): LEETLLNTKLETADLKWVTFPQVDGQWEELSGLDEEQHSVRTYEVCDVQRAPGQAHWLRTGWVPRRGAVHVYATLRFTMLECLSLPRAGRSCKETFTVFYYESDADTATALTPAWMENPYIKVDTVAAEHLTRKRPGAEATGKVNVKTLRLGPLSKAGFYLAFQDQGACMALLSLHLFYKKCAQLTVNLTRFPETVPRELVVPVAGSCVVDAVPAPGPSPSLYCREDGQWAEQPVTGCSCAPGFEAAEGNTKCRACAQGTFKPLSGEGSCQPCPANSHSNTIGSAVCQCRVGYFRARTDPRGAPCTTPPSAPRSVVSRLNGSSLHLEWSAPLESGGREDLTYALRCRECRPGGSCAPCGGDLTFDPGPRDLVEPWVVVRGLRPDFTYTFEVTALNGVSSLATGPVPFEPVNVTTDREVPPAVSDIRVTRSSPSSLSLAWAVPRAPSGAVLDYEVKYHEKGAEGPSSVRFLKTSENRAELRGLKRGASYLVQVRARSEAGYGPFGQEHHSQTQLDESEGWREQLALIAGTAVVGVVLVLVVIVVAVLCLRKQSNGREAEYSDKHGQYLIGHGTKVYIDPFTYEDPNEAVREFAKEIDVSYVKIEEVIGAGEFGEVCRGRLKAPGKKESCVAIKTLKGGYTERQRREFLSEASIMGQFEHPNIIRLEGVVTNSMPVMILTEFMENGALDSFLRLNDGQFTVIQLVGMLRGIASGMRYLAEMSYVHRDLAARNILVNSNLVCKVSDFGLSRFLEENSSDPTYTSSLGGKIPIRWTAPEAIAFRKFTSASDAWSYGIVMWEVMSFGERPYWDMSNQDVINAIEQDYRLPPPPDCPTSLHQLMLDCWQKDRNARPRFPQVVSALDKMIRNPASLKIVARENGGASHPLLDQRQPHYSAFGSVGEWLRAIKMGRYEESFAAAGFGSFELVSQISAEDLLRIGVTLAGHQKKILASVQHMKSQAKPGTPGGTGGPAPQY
Nature of the assay: Kinase inhibition assay (33P transfer), EPHB4. To be noted: read-out: EPHB4-1.

A further assay concerns the target T7, ErbB4 (Homo sapiens, UniProt Q15303).
T7 construct: Kinases are expressed as either kinase domains or full length constructs; made in house
As to the kind of experiment: Kinase inhibition assay (33P transfer), ErbB4. Conditions: read-out: ErbB4-1.

Another assay addresses T8, Ret-1 (Homo sapiens, UniProt P07949).
T8 construct: Kinases are expressed as either kinase domains or full length constructs; made in house
As to the kind of experiment: Kinase inhibition assay (33P transfer), Ret. Conditions: Table 6, Ret-1 kinase inhibition class.

Some results are limits rather than exact numbers.

T7 sequence (Q15303 26-1308, species assumed): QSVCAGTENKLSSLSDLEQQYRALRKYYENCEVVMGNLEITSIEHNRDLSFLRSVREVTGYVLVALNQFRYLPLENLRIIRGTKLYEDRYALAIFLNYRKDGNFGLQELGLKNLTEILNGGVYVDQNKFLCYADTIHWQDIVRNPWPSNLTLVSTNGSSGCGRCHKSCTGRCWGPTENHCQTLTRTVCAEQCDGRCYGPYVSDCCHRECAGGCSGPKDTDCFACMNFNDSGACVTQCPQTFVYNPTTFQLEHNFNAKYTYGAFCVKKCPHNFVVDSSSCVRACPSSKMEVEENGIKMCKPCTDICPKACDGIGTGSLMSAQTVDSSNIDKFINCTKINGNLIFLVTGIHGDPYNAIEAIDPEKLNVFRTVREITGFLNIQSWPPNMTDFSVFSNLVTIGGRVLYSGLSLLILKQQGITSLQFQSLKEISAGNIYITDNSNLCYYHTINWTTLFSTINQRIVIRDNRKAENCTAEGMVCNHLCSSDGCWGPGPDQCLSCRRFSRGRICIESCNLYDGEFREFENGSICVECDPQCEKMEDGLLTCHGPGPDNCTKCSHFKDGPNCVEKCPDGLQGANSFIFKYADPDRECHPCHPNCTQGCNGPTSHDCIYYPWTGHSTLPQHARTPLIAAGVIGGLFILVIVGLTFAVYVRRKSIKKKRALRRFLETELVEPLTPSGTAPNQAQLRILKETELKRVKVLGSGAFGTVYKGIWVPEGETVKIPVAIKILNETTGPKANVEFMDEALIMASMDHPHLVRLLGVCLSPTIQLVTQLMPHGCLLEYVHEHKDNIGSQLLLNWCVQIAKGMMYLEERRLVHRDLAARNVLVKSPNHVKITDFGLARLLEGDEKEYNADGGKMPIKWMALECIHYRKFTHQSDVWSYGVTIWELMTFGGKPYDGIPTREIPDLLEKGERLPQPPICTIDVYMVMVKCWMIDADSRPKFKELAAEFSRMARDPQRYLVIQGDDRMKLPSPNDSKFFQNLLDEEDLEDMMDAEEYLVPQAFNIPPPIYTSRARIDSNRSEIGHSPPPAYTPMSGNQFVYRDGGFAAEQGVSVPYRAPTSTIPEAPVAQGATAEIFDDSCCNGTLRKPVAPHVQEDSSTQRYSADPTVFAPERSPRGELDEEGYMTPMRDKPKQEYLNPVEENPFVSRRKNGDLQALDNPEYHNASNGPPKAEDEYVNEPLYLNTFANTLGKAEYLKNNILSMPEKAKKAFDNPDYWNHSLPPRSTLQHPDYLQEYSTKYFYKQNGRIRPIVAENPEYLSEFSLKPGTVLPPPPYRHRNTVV
T1 sequence (P12931 whole entry, species assumed, the tested form may be a part): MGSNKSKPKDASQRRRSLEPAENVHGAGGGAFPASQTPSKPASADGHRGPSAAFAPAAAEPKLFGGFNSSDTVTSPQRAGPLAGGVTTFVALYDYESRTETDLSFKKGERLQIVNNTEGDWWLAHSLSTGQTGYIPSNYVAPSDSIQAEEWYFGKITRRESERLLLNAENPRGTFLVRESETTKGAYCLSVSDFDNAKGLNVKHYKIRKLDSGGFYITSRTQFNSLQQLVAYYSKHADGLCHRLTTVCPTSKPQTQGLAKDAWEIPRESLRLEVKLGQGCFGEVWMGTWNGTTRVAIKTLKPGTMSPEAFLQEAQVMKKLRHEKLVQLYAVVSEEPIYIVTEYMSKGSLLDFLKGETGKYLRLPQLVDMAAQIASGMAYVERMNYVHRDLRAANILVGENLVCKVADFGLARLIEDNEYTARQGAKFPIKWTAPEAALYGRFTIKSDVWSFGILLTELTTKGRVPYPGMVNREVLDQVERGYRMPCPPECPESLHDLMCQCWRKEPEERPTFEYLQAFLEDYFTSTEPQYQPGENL
T8 sequence (P07949 29-1114): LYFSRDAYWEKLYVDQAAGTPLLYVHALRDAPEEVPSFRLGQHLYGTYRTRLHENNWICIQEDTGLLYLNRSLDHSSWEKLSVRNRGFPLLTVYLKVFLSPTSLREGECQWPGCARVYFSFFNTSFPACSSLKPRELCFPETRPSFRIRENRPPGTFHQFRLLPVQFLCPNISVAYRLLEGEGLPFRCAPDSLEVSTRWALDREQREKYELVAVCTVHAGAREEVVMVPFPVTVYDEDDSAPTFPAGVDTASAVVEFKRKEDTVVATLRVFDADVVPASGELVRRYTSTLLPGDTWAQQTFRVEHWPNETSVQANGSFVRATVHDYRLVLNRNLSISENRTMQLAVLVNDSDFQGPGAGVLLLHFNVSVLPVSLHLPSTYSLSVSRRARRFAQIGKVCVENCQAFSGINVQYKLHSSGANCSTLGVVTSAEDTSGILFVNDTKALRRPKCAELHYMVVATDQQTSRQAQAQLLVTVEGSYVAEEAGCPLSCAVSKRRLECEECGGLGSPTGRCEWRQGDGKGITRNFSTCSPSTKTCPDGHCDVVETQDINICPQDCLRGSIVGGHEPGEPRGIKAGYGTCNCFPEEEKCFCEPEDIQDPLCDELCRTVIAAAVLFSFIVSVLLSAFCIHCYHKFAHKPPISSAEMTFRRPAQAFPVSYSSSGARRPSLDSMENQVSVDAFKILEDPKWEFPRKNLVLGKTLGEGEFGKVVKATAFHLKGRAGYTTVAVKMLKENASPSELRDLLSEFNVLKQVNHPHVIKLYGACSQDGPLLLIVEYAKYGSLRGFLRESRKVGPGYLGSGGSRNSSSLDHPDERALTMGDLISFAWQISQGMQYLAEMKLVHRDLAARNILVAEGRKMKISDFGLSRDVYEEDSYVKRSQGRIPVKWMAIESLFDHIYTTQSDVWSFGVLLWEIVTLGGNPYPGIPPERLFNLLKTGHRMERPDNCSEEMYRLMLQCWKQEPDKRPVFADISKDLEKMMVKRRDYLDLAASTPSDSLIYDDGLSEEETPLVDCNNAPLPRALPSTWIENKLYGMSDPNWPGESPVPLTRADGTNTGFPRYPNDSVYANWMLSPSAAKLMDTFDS
T2 sequence (P06241 whole entry, species assumed, the tested form may be a part): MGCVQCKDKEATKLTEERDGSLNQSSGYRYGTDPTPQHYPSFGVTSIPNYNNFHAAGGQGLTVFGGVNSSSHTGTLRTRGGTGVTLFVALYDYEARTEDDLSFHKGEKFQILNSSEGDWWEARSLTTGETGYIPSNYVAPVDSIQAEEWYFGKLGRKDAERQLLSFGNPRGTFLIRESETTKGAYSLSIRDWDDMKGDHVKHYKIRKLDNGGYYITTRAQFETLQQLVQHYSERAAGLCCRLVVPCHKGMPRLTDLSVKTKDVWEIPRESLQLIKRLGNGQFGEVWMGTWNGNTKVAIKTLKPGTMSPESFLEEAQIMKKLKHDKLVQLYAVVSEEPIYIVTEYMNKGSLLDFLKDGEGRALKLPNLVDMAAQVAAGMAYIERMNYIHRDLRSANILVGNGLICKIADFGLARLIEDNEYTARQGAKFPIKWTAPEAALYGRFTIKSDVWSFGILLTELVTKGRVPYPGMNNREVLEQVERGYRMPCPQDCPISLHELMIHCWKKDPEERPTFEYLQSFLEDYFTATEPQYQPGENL

In the case of `COc1cc(Nc2ncnc(-n3ccc4ccccc43)n2)cc(OC)c1OC` [Compound 185], the IC50 against Src, on Fyn, at Itk, on EGFR, on Tek and at EPHB4 was over 11.9 µM each time. The IC50 at ErbB4 and on Ret-1 was over 11.9 µM throughout.

On to `COc1cc(Nc2ncnc(-n3cnc4ccccc43)n2)cc(OC)c1OC` [Compound 186], for which the IC50 against Src is over 11.9 µM; at Fyn, over 11.9 µM; on Itk it was over 11.9 µM; on EGFR it was 9.25 to 11.9 µM; on Tek, 9.25 to 11.9 µM; at EPHB4, over 11.9 µM. Also, the IC50 at ErbB4 and against Ret-1 was over 11.9 µM in each case.

On to `COc1cc(Nc2ncnc(N3CCc4cc([N+](=O)[O-])ccc43)n2)cc(OC)c1OC` [Compound 187], for which the IC50 on Src, at Fyn, on Itk, on EGFR, at Tek and at EPHB4 was over 10.6 µM throughout. Also, the IC50 on ErbB4 is 5.65 to 8.25 µM; against Ret-1 it was over 10.6 µM.

On to `COc1ccc2c(ccn2-c2ncnc(Nc3cc(OC)c(OC)c(OC)c3)n2)c1` [Compound 196], for which the IC50 against Src is over 11 µM; at Fyn, over 11 µM; on Itk, over 11 µM; on EGFR, 8.59 to 11 µM; at Tek, over 11 µM; at EPHB4, over 11 µM. The IC50 at ErbB4 and against Ret-1 was over 11 µM throughout.

Regarding `COc1cc(Nc2ncnc(-n3ccc4cc(Cl)ccc43)n2)cc(OC)c1OC` [Compound 198], the IC50 against Src, on Fyn, on Itk, at EGFR, on Tek and on EPHB4 was over 10.9 µM each time. For the same molecule, the IC50 on ErbB4 and at Ret-1 was over 10.9 µM throughout.

As for `COc1cc(Nc2ncnc(-n3ccc4cc(OCc5ccccc5)ccc43)n2)cc(OC)c1OC` [Compound 200], the IC50 against Src, at Fyn, at Itk, on EGFR, on Tek and at EPHB4 was over 9.31 µM throughout. Also, the IC50 at ErbB4 was 4.96 to 7.24 µM; against Ret-1, over 9.31 µM.

`COc1cc(Nc2ncnc(-n3ccc4ccc(Cl)cc43)n2)cc(OC)c1OC` [Compound 237]: the IC50 on Src was over 10.9 µM; on Fyn, over 10.9 µM; at Itk it was over 10.9 µM; at EGFR, 8.5 to 10.9 µM; on Tek, over 10.9 µM; at EPHB4 it was 8.5 to 10.9 µM. The results for the IC50 on ErbB4 and at Ret-1 were over 10.9 µM and 5.83 to 8.5 µM, respectively.

For `COc1cc(Nc2ncnc(-n3ccc4c(OC)cccc43)n2)cc(OC)c1OC` [Compound 238], the IC50 on Src, at Fyn, on Itk, at EGFR, at Tek and at EPHB4 was over 11 µM throughout. Further, the IC50 at ErbB4 and against Ret-1 was over 11 µM in each case.

For the molecule `COc1cc2ccn(-c3ncnc(Nc4cc(OC)c(OC)c(OC)c4)n3)c2cc1OC` [Compound 239], the IC50 on Src is over 10.3 µM; on Fyn it was over 10.3 µM; on Itk, over 10.3 µM; on EGFR, 8 to 10.3 µM; at Tek, over 10.3 µM; on EPHB4 it was over 10.3 µM. In addition, the IC50 at ErbB4 and on Ret-1 was over 10.3 µM in each case.

As for `COc1cc(Nc2ncnc(-n3ncc4ccccc43)n2)cc(OC)c1OC` [Compound 240], the IC50 was 9.25 to 11.9 µM at Src; 1.06 to 6.34 µM on Fyn; over 11.9 µM at Itk; over 11.9 µM at EGFR; over 11.9 µM at Tek; over 11.9 µM at EPHB4. In addition, the IC50 is over 11.9 µM at ErbB4 and 6.34 to 9.25 µM against Ret-1.

For the molecule `COc1ccc(Nc2ncnc(-n3c(N)nc4ccccc43)n2)cc1OC` [Compound 285], the IC50 on Src, at Fyn, on Itk, at EGFR, at Tek and on EPHB4 was over 12.4 µM throughout. In addition, the IC50 at ErbB4 was over 12.4 µM; against Ret-1 it was 6.6 to 9.63 µM.

In the case of `COCCOc1ccc(Nc2ncnc(-n3c(N)nc4ccccc43)n2)cc1OC` [Compound 287], the IC50 against Src was over 11 µM; on Fyn, over 11 µM; on Itk, 5.89 to 8.59 µM; at EGFR, 8.59 to 11 µM; at Tek, over 11 µM; at EPHB4, over 11 µM. The IC50 at ErbB4 and at Ret-1 was over 11 µM in each case.

For `COc1cc(Nc2ncnc(N3c4ccc(F)cc4CCC3C)n2)cc(OC)c1OC` (stereo not shown) [Compound 298], the IC50 on Src, at Fyn, on Itk, at EGFR, on Tek and on EPHB4 was 0.94 to 5.64 µM in each case. The IC50 on ErbB4 was 0.94 to 5.64 µM; at Ret-1 it was under 0.94 µM.

Regarding `COc1cc(Nc2ncnc(Nc3ccc(C)c(F)c3)n2)cc(OC)c1OC` [Compound 300], the IC50 against Src was under 1.04 µM; at Fyn, 1.04 to 6.23 µM; at Itk, 6.23 to 9.08 µM; at EGFR, under 1.04 µM; on Tek, 9.08 to 11.7 µM; at EPHB4 it was 1.04 to 6.23 µM. The IC50 on ErbB4 and against Ret-1 was 1.04 to 6.23 µM in each case.

Turning to `COCCOc1ccc(Nc2ncnc(-n3c(N)nc4ccccc43)n2)cc1OCCOC` [Compound 302], the IC50 against Src, at Fyn, at Itk, at EGFR, on Tek and at EPHB4 was over 9.97 µM each time. Also, the IC50 on ErbB4 and against Ret-1 was over 9.97 µM each time.

With `COc1cc(Nc2ncnc(Nc3cccc(F)c3)n2)cc(OC)c1OC` [Compound 304], the IC50 at Src was under 1.08 µM; on Fyn, under 1.08 µM; on Itk it was 9.42 to 12.1 µM; at EGFR, under 1.08 µM; on Tek, over 12.1 µM; at EPHB4, 1.08 to 6.46 µM. Also, the IC50 at ErbB4 and against Ret-1 was under 1.08 µM throughout.

As to `COc1cc(Nc2ncnc(Nc3ccc(C)c(NS(C)(=O)=O)c3)n2)cc(OC)c1OC` [Compound 305], the IC50 on Src is under 0.869 µM; at Fyn, under 0.869 µM; on Itk it was over 9.77 µM; on EGFR, 0.869 to 5.21 µM; at Tek it was over 9.77 µM; on EPHB4 it was 0.869 to 5.21 µM. Besides, the IC50 at ErbB4 was 0.869 to 5.21 µM; on Ret-1, under 0.869 µM.

The values above are taken from patent US7074789B2, “Kinase inhibitors” (Amgen Inc., priority 1999, dated 2006).
